Results as given in patent US20250312349A1, “COMPOSITION AND METHODS OF TREATING INTRACELLULAR PATHOGEN INFECTION” (UNIVERSITY HOSPITALS CLEVELAND MEDICAL CENTER, priority 2024, published 2025).

Columns and labels:
EGS T. gondii cysts = experiment: Parasite cysts in CHO cells infected with EGS T. gondii; type: cell-based, Toxoplasma gondii; settings: Saracatinib 1 μM, 4 days
Description: We infected CHO cells with EGS T. gondii, a strain of the parasite that spontaneously form cysts in vitro.

Akt = experiment: Immunoblot of phospho-S473 Akt in T. gondii-infected CHO cells; type: cell-based, Chinese Hamster; settings: lysates at 2 h
Protocol: FIGS. 4(A-C) illustrate Src inhibition induces T. gondii killing by impairing Akt activation. (A) CHO cells were challenged with RH-T. gondii. Cell lysates collected at 2 h were probed for Akt and phospho-S473 Akt. Relative density of phospho-Akt was normalized to total Akt and compared to the uninfected sample. Densitometry graph shown as mean±SEM from 3 independent experiments. (B-C) CHO cells or primary brain endothelial cells were transfected with plasmids encoding HA-tagged CA- or HA-tagged WT-Akt. Lysates were probed for actin, HA, Akt and phospho-S473 Akt. Cells were challenged with T. gondii and treated with Saracatinib (1 μM). Cell lysates collected at 2 h were probed for Akt and phospho-S473 Akt. Relative density of phospho-Akt and densitometries were examined as above. Percentages of infected cells and tachyzoites per 100 cells were assessed at 24 h. Data are shown as mean±SEM. The graphs show data from 6 independent monolayers pooled from 3 different experiments. Data points are shown as circles, triangles, or squares corresponding to individual monolayers within each experiment. […]

T. gondii [1] = experiment: In-out assay of parasite invasion of host cells (SAG1 staining); type: cell-based, Toxoplasma gondii; settings: CHO cells, 1 μM, RH-RFP T. gondii, 2 hours
Protocol: (A) CHO cells were treated with Saracatinib (1 μM) and infected with RH-RFP T. gondii for 2 hours. Cells were fixed with Paraformaldehyde (PFA) and were not permeabilized prior to staining with a tachyzoite marker, SAG1. […] will express red fluorescence while extracellular parasites stain for SAG1 and appear green or yellow in color. Data are shown as mean±SEM. The graphs show data from 7 independent monolayers pooled from 2 different experiments. (B) CHO cells were treated with Saracatinib (1 μM) and infected with RH-RFP T. gondii for 24 hours. Number of tachyzoites per vacuole were determined by light microscopy and quantified as percentage of total vacuoles. Data are shown as mean±SEM. The graphs show data from 6 independent monolayers pooled from 3 different experiments. […] (PDF)
Mammalian cells were infected with RFP-T. gondii (RH) and fixed with 4% paraformaldehyde. Cells were stained with antibodies against LC3 (MBL International, Woburn, MA), LAMP1 (DSHB, Iowa City, IA), or GRA7 (gift from John Boothroyd, Stanford University, Stanford, CA) followed by a fluorescently conjugated secondary antibodies (Jackson ImmunoResearch Laboratories, West Grove, PA). LC3 and LAMP1 were evaluated for accumulation at 5- and 7 hours post-infection, respectively. […] Parasites were evaluated blindly in multiple random fields of view and 100 parasites were examined per group. […]

T. gondii [2] = experiment: In vitro infection of mammalian cells with T. gondii tachyzoites, counted by light microscopy; type: cell-based, Toxoplasma gondii
Protocol: Chinese Hamster Ovary (CHO; a gift from Cathleen Carlin, Case Western Reserve University), human retinal pigment epithelial (RPE) cells (ARPE-19; American Type Culture Collection, ATCC, Manassas, VA), and mouse endothelial […]) transduced with Src shRNA or control encoding lentiviral vectors were cultured in complete media. Mouse brain endothelial cells expressing WT or DN EGFR were isolated as described. Endothelial cells were cultured in medium containing Endothelial Cell Growth Supplement (ECGS; Sigma-Aldrich, St Louis, MO). Mammalian cells were infected with tachyzoites of the RH or PTG stains of T. gondii; RH strain was used unless otherwise indicated. Cells were fixed at 2 hours or 24 hours followed by staining using Hema 3 Manual Staining System (Fisherbrand, Hampton, NH). At least 100 to 200 cells per monolayer were counted by examining a minimum of 5 random areas per monolayer. The percentage of infected cells, tachyzoites and vacuoles per 100 cells, and tachyzoites per vacuole were counted using light microscopy. Three independent experiments were performed. Saracatinib, Gefitinib (LC Laboratories, Woburn, MA) and lysosomal inhibitors leupeptin and pepstatin (10 μM; Millipore Sigma, Burlington, MA) were used in specified experiments. Each cell monolayer was generated and infected independently.

ME49 T. gondii = experiment: Suboptimal dose combination in mice with ocular and cerebral toxoplasmosis; type: in vivo, C57BL/6 mice; settings: 2.5 mg/Kg once a day, 14 days
Protocol: C57BL/6 mice that had been infected with tissue cysts of ME49 T. gondii for 4 weeks (at a time when animals have developed ocular and cerebral toxoplasmosis), were treated with suboptimal dose of Saracatinib (2.5 mg/Kg once a day) with or without suboptimal dose of Pyrimethamine (4.2 mg/Kg once a day) for 14 days.

[3] = CHO cells transfected with CA Akt, 1 μM, 24 h
[4] = CHO cells transfected with WT Akt, 1 μM, 24 h
[5] = EGFR+ CHO cells, RH T. gondii, indicated concentrations, 24 h

CN1CCN(CCOc2cc(OC3CCOCC3)c3c(Nc4c(Cl)ccc5c4OCO5)ncnc3c2)CC1 [Saracatinib, N-(5-chloro-1,3-benzodioxol-4-yl)-7-(2-(4-methylpiperazin-1-yl)ethoxy)-5-(tetrahydro-2H-pyran-4-yloxy)quinazolin-4-amine]
morphology of bradyzoites in remaining cysts (EGS T. gondii cysts): altered morphology | reduction in the number of cysts (EGS T. gondii cysts): ~60% | T. gondii-induced phosphorylation of Akt at Ser473 (Akt): abrogated | parasite invasion of host cells (T. gondii [1]): did not affect | toxoplasmacidal activity (T. gondii [2]; 0.3 μM): significantly reduced | toxoplasmacidal activity (T. gondii [2]; 1 μM, infected host cells): kills T. gondii | toxoplasmacidal activity (T. gondii [2]; CHO cells infected with type I (RH) or Type II (PTG) strains, 1 μM, 2 h and 24 h): toxoplasmacidal activity | effects on infected cells and tachyzoites per 100 cells compared with Gefitinib (T. gondii [2]; CHO cells stably transfected to express EGFR, 24 h): more striking than the effects of Gefitinib | number of tachyzoites per 100 cells (T. gondii [2]; [3]): no reduction | percentage of infection (T. gondii [2]; [3]): no reduction | number of tachyzoites per 100 cells (T. gondii [2]; [4]): reduced | percentage of infected cells (T. gondii [2]; [4]): reduced | parasite replication (tachyzoites per vacuole) (T. gondii [2]; CHO cells, 1 μM, 24 hours): did not affect | killing of T. gondii in cells made deficient in PTEN (T. gondii [2]; CHO cells, PTEN siRNA, 24 h): no longer able to kill T. gondii | percentage of infected cells (T. gondii [2]; [5]): dose-dependent significant decrease | tachyzoites per 100 cells (T. gondii [2]; [5]): dose-dependent significant decrease | anti-T. gondii activity in ULK1-deficient cells (T. gondii [2]; ULK1 siRNA, CHO and brain endothelial cells, 24 h): unable to exhibit anti-T. gondii activity | anti-T. gondii activity in presence of Leupeptin and Pepstatin A (T. gondii [2]; lysosomal inhibitors 10 μM added post-infection): ablated | toxoplasmacidal activity in cells made deficient in Src (T. gondii [2]; mHEVc cells transduced with Src shRNA, 1 μM): no toxoplasmacidal activity was detected | load of tissue cysts (ME49 T. gondii): neither the low dose Saracatinib nor the low dose Pyrimethamine decreased
